Our source for the Kd and Km values is paper PMC3092583, “Enzyme Mechanism and Slow-Onset Inhibition of Plasmodium falciparum Enoyl-Acyl Carrier Protein Reductase by an Inorganic Complex” (2011).

Read-outs that look alike come from different tables or passages of the source.

In series [1] the target is T1, P. falciparum ENR (PfENR), enoyl-acyl carrier protein reductase (Plasmodium falciparum, UniProt Q9BH77).
T1 construct: gene FabI
T1 sequence (Q9BH77 22-432): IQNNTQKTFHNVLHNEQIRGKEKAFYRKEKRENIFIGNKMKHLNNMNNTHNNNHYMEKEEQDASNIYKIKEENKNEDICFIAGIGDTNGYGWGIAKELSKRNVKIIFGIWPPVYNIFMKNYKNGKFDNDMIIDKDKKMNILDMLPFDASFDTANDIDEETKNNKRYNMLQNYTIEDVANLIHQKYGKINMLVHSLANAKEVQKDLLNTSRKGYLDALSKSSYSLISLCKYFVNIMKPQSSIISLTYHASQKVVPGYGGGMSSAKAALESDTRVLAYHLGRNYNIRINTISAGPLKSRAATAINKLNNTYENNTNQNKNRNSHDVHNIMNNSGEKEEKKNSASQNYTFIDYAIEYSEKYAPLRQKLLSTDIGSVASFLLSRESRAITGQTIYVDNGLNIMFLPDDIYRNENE
In words: biochemical. The class given is binding.

In series [2] the target is T1, P. falciparum ENR (PfENR), enoyl-acyl carrier protein reductase. The series is described as follows: biochemical. The class given is binding. The source holds these as a separate data set.
Substrate in series [3]: C/C=C/C(=O)SCCNC(=O)CCNC(=O)[C@H](O)C(C)(C)COP(=O)(O)OP(=O)(O)OC[C@H]1O[C@@H](n2cnc3c(N)ncnc32)[C@H](O)[C@@H]1OP(=O)(O)O
The series is described as follows: steady-state initial velocity kinetics (KM) with purified enzyme; no fluorescence change with free enzyme. The class given is biochemical, Plasmodium falciparum. Conditions: NADH proposed to bind to a modified form of the enzyme (F) after NAD+ release.

As a reminder, the Kd is the free concentration of one partner at which half of the binding sites on the other are occupied at equilibrium, for simple one-to-one binding. Low values mean tighter binding, high ones weaker binding. `NC(=O)C1=CN([C@@H]2O[C@H](COP(=O)(O)OP(=O)(O)OC[C@H]3O[C@@H](n4cnc5c(N)ncnc54)[C@H](O)[C@@H]3O)[C@@H](O)[C@H]2O)C=CC1` [NADH]: in series [1], binding was put at a Kd of 398 µM. `CCCC(=O)SCCNC(=O)CCNC(=O)[C@H](O)C(C)(C)COP(=O)(O)OP(=O)(O)OC[C@H]1O[C@@H](n2cnc3c(N)ncnc32)[C@H](O)[C@@H]1OP(=O)(O)O` [butyryl-CoA] returned a Kd in series [2] of 1150 µM.

B1: P. falciparum ENR (PfENR), enoyl-acyl carrier protein reductase (Plasmodium falciparum) (protein)
chain: IQNNTQKTFHNVLHNEQIRGKEKAFYRKEKRENIFIGNKMKHLNNMNNTHNNNHYMEKEEQDASNIYKIKEENKNEDICFIAGIGDTNGYGWGIAKELSKRNVKIIFGIWPPVYNIFMKNYKNGKFDNDMIIDKDKKMNILDMLPFDASFDTANDIDEETKNNKRYNMLQNYTIEDVANLIHQKYGKINMLVHSLANAKEVQKDLLNTSRKGYLDALSKSSYSLISLCKYFVNIMKPQSSIISLTYHASQKVVPGYGGGMSSAKAALESDTRVLAYHLGRNYNIRINTISAGPLKSRAATAINKLNNTYENNTNQNKNRNSHDVHNIMNNSGEKEEKKNSASQNYTFIDYAIEYSEKYAPLRQKLLSTDIGSVASFLLSRESRAITGQTIYVDNGLNIMFLPDDIYRNENE
The Km is the concentration of substrate that gives half-maximal velocity. For the molecule B1, the Km in series [3] worked out at 63 µM.
